According to patent US20240374581A1, “SALT TYPES OF TRICYCLIC TETRAHYDRO ISOQUINOLINE DERIVATIVE” (JIANGSU HENGRUI PHARMACEUTICALS CO., LTD., priority 2021, published 2024):

How the values were obtained:
CYP3A4 [1] = biological target: T1, CYP3A4 (Homo sapiens (Human), UniProt P08684); experiment: Inhibition of site of metabolism of testosterone in human liver microsome CYP3A4; format: in vitro ADME; conditions: 30 min
Procedure: • 1. Phosphate buffer (20×PBS, purchased from Sangon); • 2. NADPH (ACROS, A2646-71-1); • 3. Human liver microsome (Corning Gentest, Cat No. 452161, Lot No. 905002, Donor36); • 4. ABI QTrap 4000 LC-MS System (AB Sciex); • 5. ZORBAX Extend-C18, 3×50 mm, 3.5 m (Agilent, USA); • 6. CYP probe substrate (testosterone, Vocko, CAS No. [58-22-0]/75 μM) and positive control inhibitor (ketoconazole, SIGMA, Cat No. K1003-100MG).
A 100 mM PBS buffer was prepared. A 0.25 mg/mL microsome solution, a 7.5 mM MgCl2 and a 5 mM NADPH solution were prepared using the buffer. A30 mM stock solution was diluted with DMSO to obtain 30 mM, 10 mM, 3 mM, 1 mM, 0.3 mM, 0.03 mM, 0.003 mM and 0 mM serial solutions I, which were further diluted 200-fold with phosphate buffer (PBS) to obtain serial test solutions II (150, 50, 15, 5, 1.5, 0.15, 0.015 and 0 μM). A testosterone working solution was diluted with PBS to 375 μM. 40 μL of a 0.25 mg/mL microsome solution prepared in 7.5 mM MgCl2 and 20 μL of each of the 375 μM testosterone working solution and the compound working solutions (150, 50, 15, 5, 1.5, 0.15, 0.015 and 0 μM) were measured out and well mixed. […]
The IC50 value of the drug for the site of metabolism of testosterone in CYP3A4 was calculated by Graphpad Prism and is shown in Table 6.

CYP3A4 [2] = biological target: T1, CYP3A4; experiment: Time-dependent inhibition of site of metabolism of midazolam in human liver microsome CYP3A4; format: in vitro ADME
Procedure: • 1. Phosphate buffer (20×PBS, purchased from Sangon); • 2. NADPH (ACROS, A2646-71-1); • 3. Human liver microsome (Corning Gentest, Cat No. 452161, Lot No. 9050002, Donor, 36); • 4. ABI QTrap 4000 LC-MS System (AB Sciex); • 5. ZORBAX Extend-C18, 3×50 mm, 3.5 m (Agilent, USA); • 6. CYP probe substrate (midazolam, TRC, M343000/3 μM) and positive control inhibitor (verapamil, Adamas Reagent Co., Ltd, Cat No. 25904A).
A 100 mM PBS buffer was prepared. A 0.25 mg/mL microsome solution, a 7.5 mM MgCl2 and a 5 mM NADPH solution were prepared using the buffer. A 30 mM stock solution was diluted with DMSO to obtain 30 mM, 10 mM, 3 mM, 1 mM, 0.3 mM, 0.1 mM, 0.03 mM and 0 mM serial solutions I, which were further diluted 200-fold with phosphate buffer (PBS) to obtain serial test solutions II (150, 50, 15, 5, 1.5, 0.5, 0.15 and 0 μM). A midazolam working solution was diluted with PBS to 15 μM.
The serial test solutions prepared above were well mixed by shaking and aliquoted in 20 μL portions into corresponding reaction plates (+NADPH, T0 and -NADPH groups were set). Three parallel tests were set. 40 μL of the liver microsome working solution was added to each 96-well plate. 20 μL of a corresponding substrate solution was added to the TO plate. 20 μL of NADPH was added to the TO plate and +NADPH group. A timer was started, and the plates were incubated in a water bath at 37° C. After 30 min of incubation, the TO plate was taken out, and the reaction was terminated with 250 μL of an internal standard-containing ACN solution. The +NADPH group was supplemented with 20 μL of the corresponding substrate solution, and the −NADPH group was supplemented with 20 μL of the corresponding substrate solution and […]. A timer was started, and the plates were incubated in a water bath at 37° C. After 30 min of incubation, the plates were taken out, and the reactions were terminated with 250 μL of an internal standard-containing ACN solution. […]
The IC50 value of the drug for the site of metabolism of midazolam in CYP3A4 was calculated by Graphpad Prism and is shown in Table 7.

[3] = Influencing factor stability study

T1 sequence (P08684 whole entry): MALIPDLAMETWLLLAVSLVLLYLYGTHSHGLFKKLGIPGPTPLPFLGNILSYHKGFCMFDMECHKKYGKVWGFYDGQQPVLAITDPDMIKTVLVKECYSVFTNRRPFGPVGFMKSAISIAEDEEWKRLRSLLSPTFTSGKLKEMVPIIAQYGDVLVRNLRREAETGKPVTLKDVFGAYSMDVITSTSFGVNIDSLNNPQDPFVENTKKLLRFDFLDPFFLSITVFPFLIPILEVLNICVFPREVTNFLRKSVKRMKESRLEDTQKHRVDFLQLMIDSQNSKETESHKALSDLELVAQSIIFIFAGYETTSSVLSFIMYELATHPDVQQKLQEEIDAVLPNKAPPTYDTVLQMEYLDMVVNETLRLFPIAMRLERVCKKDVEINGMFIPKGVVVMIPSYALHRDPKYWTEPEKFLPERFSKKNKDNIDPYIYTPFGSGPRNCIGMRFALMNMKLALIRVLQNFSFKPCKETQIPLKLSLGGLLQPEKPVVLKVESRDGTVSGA

## [2H]C1([2H])Oc2cc3c(cc2O1)[C@@H](c1ccc(NC2CN(CCCF)C2)cn1)N(CC(F)(F)CO)[C@H](C)C3 [Compound 1, 2,2-Difluoro-3-((5S,7R)-5-(5-((1-(3-fluoropropyl)azetidin-3-yl)amino)pyridin-2-yl)-7-methyl-7,8-dihydro-[1,3]dioxolo[4,5-g]isoquinolin-6(5H)-yl-2,2-d2)propan-1-ol]
CYP3A4 [1]
  IC50: > 30 µM
CYP3A4 [2]; human, microsomes
  IC50 shift at 30 min: 0.7
CYP3A4 [2]; pre-incubation with NADPH 30 min
  IC50: 13.1 µM
CYP3A4 [2]; pre-incubation without NADPH
  IC50: 19.6 µM
[3]; 40° C., 1 month
  Crystal form: Amorphous form
  Purity (%): 95.4%
[3]; 40° C., 5 days
  Crystal form: Amorphous form
  Purity (%): 96.7%
[3]; 40° C., 10 days
  Crystal form: Amorphous form
  Purity (%): 96.5%
[3]; 60° C., 1 month
  Crystal form: Amorphous form
  Purity (%): 87.6%
[3]; 60° C., 5 days
  Crystal form: Amorphous form
  Purity (%): 95.7%
[3]; 60° C., 10 days
  Crystal form: Amorphous form
  Purity (%): 94.2%
[3]; 75% RH and 92.5% RH, 30 days
  behaviour under the high-humidity conditions (conclusion): deliquesced
[3]; 75% RH, 1 month
  Crystal form: Deliquescence
  Purity (%): 96.9%
[3]; 75% RH, 5 days
  Crystal form: Amorphous form
  Purity (%): 97.0%
[3]; 75% RH, 10 days
  Crystal form: Amorphous form
  Purity (%): 97.0%
[3]; 92.5% RH, 1 month
  Crystal form: Deliquescence
  Purity (%): 97.0%
[3]; 92.5% RH, 5 days
  Crystal form: Amorphous form
  Purity (%): 96.9%
[3]; 92.5% RH, 10 days
  Crystal form: Amorphous form
  Purity (%): 97.0%
[3]; 4500 Lux, 1 month
  Crystal form: Amorphous form
  Purity (%): 71.7%
[3]; 4500 Lux, 5 days
  Crystal form: Amorphous form
  Purity (%): 94.0%
[3]; 4500 Lux, 10 days
  Crystal form: Amorphous form
  Purity (%): 89.9%
[3]; Initial, 0 days
  Crystal form: Amorphous form
  Purity (%): 97.1%
